Test results published in publication PMC8742647 (Clinical and Translational Science, 2021).
Read-outs that look alike come from different tables or passages of the source.

Key:
[1] = prediction of CLt,human by single-species allometric scaling from PXB-mice; set-up: species or system humans; settings: for Predicted CLt,human, PXB‐SSS: scaled from CLt in PXB-mice, exponent 0.75
[2] = ref Table S1; cited from earlier work
[3] = ref Table S1; cited from earlier work; remark: listed apart in the source
[4] = blood‐to‐plasma concentration ratio, ref Table S1; cited from earlier work
[5] = prediction of CLt,human by in vitro–in vivo extrapolation; set-up: species or system humans; settings: for Predicted CLt,human, IVIVE: from in vitro CLint per human hepatocyte, dispersion model
[6] = total clearance after intravenous administration to PXB-mice; format: in vivo, PXB‐mice (chimeric mice with humanized livers); settings: intravenous cassette dose 0.1 mg/kg, N = 3, noncompartmental analysis
[7] = test system: cryopreserved human hepatocytes; experiment: in vitro metabolic stability assay using cryopreserved human hepatocytes; settings: for CLint per hepatocyte, Humans: in vitro, human hepatocytes, corrected with fraction unbound in hepatocytes and medium; for % remaining after a 4‐h incubation: cryopreserved human hepatocytes, 0.5 million cells/ml, 0.1 or 1 µmol/l; for turnover during a 4‐h incubation in the human hepatocyte assay: criterion for low‐CLint compounds: no significant turnover (<20%)
[8] = prediction of CLt,human by multispecies allometric scaling, rule of exponent; settings: for Predicted CLt,human, ROE: from CLt in rats, monkeys and dogs
[9] = ref Table S1; cited from earlier work; remark: listed apart in the source
[10] = prediction of CLt,human by physiologically based scaling using PXB-mice; set-up: species or system humans; settings: for Predicted CLt,human, PXB‐PBS: from CLt in PXB-mice, dispersion model, CLint per hepatocyte assumed equal
[11] = humans; ref Table S1; cited from earlier work
[12] = for Predicted CLt,human, FCIM: from CLt in rats, monkeys and dogs and fu,p ratio rat/human
[13] = total clearance after intravenous administration to rats; format: in vivo, Sprague–Dawley rats; settings: intravenous cassette dose 0.1 mg/kg, N = 3
[14] = fraction unbound in rat plasma; ref Table S1; cited from earlier work
[15] = total clearance after intravenous administration to monkeys; format: in vivo, cynomolgus monkeys; settings: intravenous cassette dose 0.1 mg/kg, N = 3
[16] = fraction unbound in plasma, equilibrium dialysis; format: in vitro ADME, humans; settings: fraction unbound in human plasma

For `COc1ccccc1Oc1c(NS(=O)(=O)c2ccc(C(C)(C)C)cc2)nc(-c2ncccn2)nc1OCCO` [Bosentan], the “Predicted CLt,human, PXB‐SSS” value [1] is listed as 1.18 mL/min/kg, the “CLt, Dogs” value [2] is listed as 1.72 mL/min/kg and the “CLt, Monkeys” value [3] is listed as 20.6 mL/min/kg. For the same compound, the “R b, Humans” value [4] was 0.48, the “Predicted CLt,human, IVIVE” value [5] was 0.68 mL/min/kg and the “CLt, PXB‐mice” value [6] was 8.78 mL/min/kg. For the same compound, the “CLint per hepatocyte, Humans” value [7] was 12.3 µl/min/1 × 10^6 cells, the “Predicted CLt,human, ROE” value [8] was 1.68 mL/min/kg and the “CLt, Rats” value [9] was 16.40 mL/min/kg. The “Predicted CLt,human, PXB‐PBS” value [10] was 1.39 mL/min/kg, the “Observed CLt,human” value [11] was 2.1 mL/min/kg and the “Predicted CLt,human, FCIM” value [12] was 5.37 mL/min/kg.
In the case of `CN[C@@H]1C[C@H]2O[C@@](C)([C@@H]1OC)n1c3ccccc3c3c4c(c5c6ccccc6n2c5c31)C(=O)N[C@H]4O` [UCN−01, 7‐hydroxystaurosporine], the “Fold error (predicted/observed), PXB‐SSS” value ([1]; predicted/observed CLt,human) is reported as 1.35, the “Predicted CLt,human, PXB‐SSS” value [1] is reported as 0.0050 mL/min/kg and the “CLt, Rats” value [13] is reported as 77.37 mL/min/kg. For the same compound, the “CLt, Dogs” value [2] was 10.27 mL/min/kg, the “Predicted CLt,human, IVIVE” value [5] was 0.6186 mL/min/kg and the “Fold error (predicted/observed), IVIVE” value ([5]; predicted/observed CLt,human) was 167.20. The “CLt, PXB‐mice” value [6] was 0.0369 mL/min/kg, the “% remaining after a 4‐h incubation” value [7] was 4% and the “CLint per hepatocyte, Humans” value [7] was 83.5 µl/min/1 × 10^6 cells. For the same compound, the “f u,p, Rats” value [14] was 0.0175, the “CLt, Monkeys” value [15] was 3.36 mL/min/kg and the “Predicted CLt,human, ROE” value [8] was 1.5640 mL/min/kg. The “Fold error (predicted/observed), ROE” value ([8]; predicted/observed CLt,human) was 422.70, the “Predicted CLt,human, PXB‐PBS” value [10] was 0.0056 mL/min/kg and the “Fold error (predicted/observed), PXB‐PBS” value ([10]; predicted/observed CLt,human) was 1.52. For the same compound, the “f u,p, Humans” value [16] was 0.003, the “Observed CLt,human” value [11] was 0.0037 mL/min/kg and the “Predicted CLt,human, FCIM” value [12] was 1.3765 mL/min/kg. The “Fold error (predicted/observed), FCIM” value ([12]; predicted/observed CLt,human) was 372.03.
For `CC(=O)C[C@@H](c1ccccc1)c1c(O)c2ccccc2oc1=O` [(S)‐Warfarin], the “Predicted CLt,human, PXB‐SSS” value [1] is given as 0.062 mL/min/kg, the “CLt, Rats” value [13] is given as 0.21 mL/min/kg and the “R b, Humans” value [4] is given as 0.55. For the same compound, the “CLt, PXB‐mice” value [6] was 0.484 mL/min/kg, the “turnover during a 4‐h incubation in the human hepatocyte assay” value [7] was less than 20% and the “% remaining after a 4‐h incubation” value [7] was 80%. The “discrepancy between observed and predicted CLt,human, ROE approach” value [8] was “more than 3 fold”, the “Predicted CLt,human, ROE” value [8] was 0.417 mL/min/kg and the “Predicted CLt,human, PXB‐PBS” value [10] was 0.074 mL/min/kg. For the same compound, the “Observed CLt,human” value [11] was 0.055 mL/min/kg, the “discrepancy between observed and predicted CLt,human, FCIM approach” value [12] was “more than 3 fold” and the “Predicted CLt,human, FCIM” value [12] was 0.330 mL/min/kg.
For `Nc1ccc(S(=O)(=O)c2ccc(N)cc2)cc1` [Dapsone], the “Predicted CLt,human, PXB‐SSS” value [1] was 0.60 mL/min/kg, the “CLt, Rats” value [13] was 6.87 mL/min/kg and the “CLt, PXB‐mice” value [6] was 4.40 mL/min/kg. The “turnover during a 4‐h incubation in the human hepatocyte assay” value [7] was less than 20%, the “Predicted CLt,human, ROE” value [8] was 0.91 mL/min/kg and the “Predicted CLt,human, PXB‐PBS” value [10] was 0.67 mL/min/kg. The “f u,p, Humans” value [16] was 0.381 and the “Predicted CLt,human, FCIM” value [12] was 2.01 mL/min/kg.
For `COc1cc2nc(N3CCN(C(=O)C4COc5ccccc5O4)CC3)nc(N)c2cc1OC` (centres unmarked) [Doxazosin], the “Predicted CLt,human, PXB‐SSS” value [1] was 4.61 mL/min/kg, the “Predicted CLt,human, IVIVE” value [5] was 5.62 mL/min/kg and the “CLt, PXB‐mice” value [6] was 34.245 mL/min/kg. The “CLint per hepatocyte, Humans” value [7] was 41.5 µl/min/1 × 10^6 cells, the “Predicted CLt,human, ROE” value [8] was 3.93 mL/min/kg and the “Predicted CLt,human, PXB‐PBS” value [10] was 5.65 mL/min/kg. The “f u,p, Humans” value [16] was 0.066 and the “Predicted CLt,human, FCIM” value [12] was 6.20 mL/min/kg.
In the case of `CN1C(=O)CN=C(c2ccccc2)c2cc(Cl)ccc21` [Diazepam], the “Predicted CLt,human, PXB‐SSS” value [1] is given as 5.68 mL/min/kg, the “CLt, Dogs” value [2] is given as 46.71 mL/min/kg and the “CLt, Monkeys” value [3] is given as 17.90 mL/min/kg. For the same compound, the “R b, Humans” value [4] was 0.71, the “Predicted CLt,human, IVIVE” value [5] was 0.69 mL/min/kg and the “CLt, PXB‐mice” value [6] was 42.147 mL/min/kg. For the same compound, the “Predicted CLt,human, ROE” value [8] was 12.46 mL/min/kg, the “CLt, Rats” value [9] was 61.51 mL/min/kg and the “Predicted CLt,human, PXB‐PBS” value [10] was 7.52 mL/min/kg. The “Observed CLt,human” value [11] was 0.38 mL/min/kg and the “Predicted CLt,human, FCIM” value [12] was 2.53 mL/min/kg.
For `CC(C)N(CCC(C(N)=O)(c1ccccc1)c1ccccn1)C(C)C` (centres unmarked) [Disopyramide], the “Predicted CLt,human, PXB‐SSS” value [1] is listed as 3.72 mL/min/kg, the “CLt, Rats” value [13] is listed as 179.46 mL/min/kg and the “CLt, Dogs” value [2] is listed as 29 mL/min/kg. The “CLt, Monkeys” value [3] was 19 mL/min/kg, the “R b, Humans” value [4] was 1.2 and the “Predicted CLt,human, IVIVE” value [5] was 1.24 mL/min/kg. The “CLt, PXB‐mice” value [6] was 28.86 mL/min/kg, the “CLint per hepatocyte, Humans” value [7] was 3.2 µl/min/1 × 10^6 cells and the “f u,p, Rats” value [14] was 0.610. For the same compound, the “Predicted CLt,human, ROE” value [8] was 7.36 mL/min/kg, the “Predicted CLt,human, PXB‐PBS” value [10] was 4.63 mL/min/kg and the “f u,p, Humans” value [16] was 0.161. For the same compound, the “Observed CLt,human” value [11] was 0.9 mL/min/kg.
